Test system: E. faecalis V583 VRE
Format: cell-based, Enterococcus faecalis
Excerpt: The insert depicts the clot model.
E. faecalis V583 (VRE) is an example of a vancomycin resistant E. faecalis that was announced by the Centers for Disease Control (CDC) as one of the major bacterial threats today.

Compound: CN[C@H](CC(C)C)C(=O)N[C@H]1C(=O)N[C@@H](CC(N)=O)C(=O)N[C@H]2C(=O)N[C@H]3C(=O)N[C@H](C(=O)N[C@H](C(=O)O)c4cc(O)cc(O)c4-c4cc3ccc4O)[C@H](O)c3ccc(c(Cl)c3)Oc3cc2cc(c3O[C@@H]2O[C@H](CO)[C@@H](O)[C@H](O)[C@H]2O[C@H]2C[C@](C)(N)[C@H](O)[C@H](C)O2)Oc2ccc(cc2Cl)[C@H]1O [vancomycin]
- colony growth on agar plate from seeded culture aliquots (24 hours incubation in 37 °C): growth was observed
- effect on growth and viability (EFLK1 2.5×10^7 phages/ml, vancomycin 15 μg/ml): somewhat affects its growth and viability

From patent US20170281700A1, “PHAGE THERAPY FOR TARGETING ENTEROCOCCI” (priority 2014, published 2017)
